Patent US7939064B2 (priority 2006, dated 2011)

Tested on: transient cerebral focal ischemia (left middle cerebral artery occlusion)
Conditions: rat, in vivo

SMILES: C[C@]12N[C@H](Cc3ccccc31)c1ccccc12 [MK801, dizocilpine, reference compound]
- infarct volume relative to saline-treated control: 61.1%±8.6%
- reduction of focal ischemia / infarct size (summary statement): 40%
